{
  "source": "patent US20170260178A1",
  "about": "(SPERO GYRASE, INC., priority 2012, published 2017)",
  "key": {"S. aureus (ATCC 29213)": {"tested_on": "S. aureus (ATCC 29213)", "experiment": "Bacterial assay: MIC against S. aureus", "type": "cell-based, Staphylococcus aureus", "settings": "for minimal inhibitory concentration (MIC): S. aureus ATCC 29213; for MIC: Staphylococcus aureus, ATCC29213, read-out: minimal inhibitory concentration (MIC)"}, "S. pyogenes (ATCC 51339)": {"tested_on": "S. pyogenes (ATCC 51339)", "experiment": "Bacterial assay: MIC against S. pyogenes", "type": "cell-based, Streptococcus pyogenes", "settings": "for MIC: Streptococcus pyogenes, ATCC51339, read-out: minimal inhibitory concentration (MIC)"}},
  "data": [
    {"molecule": "1-ethyl-3-[7-[4-(4-ethylpiperazin-1-yl)pyridin-2-yl]-5-[2-(1-hydroxy-1-methyl-ethyl)pyrimidin-5-yl]-1,3-benzothiazol-2-yl]urea [Compound 79]", "values": [
      {"measurement": "minimal inhibitory concentration (MIC)", "setting": "S. aureus (ATCC 29213)", "value": 2, "unit": "µg/mL"},
      {"measurement": "minimal inhibitory concentration (MIC)", "setting": "S. pyogenes (ATCC 51339); S. pyogenes ATCC 51339", "value": 2, "unit": "µg/mL"}
    ]},
    {"molecule": "CCNC(=O)Nc1nc2cc(-c3cnc(C(C)(C)O)nc3)cc(-c3cc(CN4CC(C)(O)C4)ccn3)c2s1", "note": "[Compound 2, 1-ethyl-3-[7-[4-[(3-hydroxy-3-methyl-azetidin-1-yl)methyl]-2-pyridyl]-5-[2-(1-hydroxy-1-methyl-ethyl)pyrimidin-5-yl]-1,3-benzothiazol-2-yl]urea]", "values": [
      {"measurement": "MIC", "setting": "S. aureus (ATCC 29213)", "value": "≤ 1", "unit": "µg/mL"},
      {"measurement": "MIC", "setting": "S. pyogenes (ATCC 51339)", "value": "≤ 1", "unit": "µg/mL"}
    ]},
    {"molecule": "CCNC(=O)Nc1nc2cc(-c3cnc(C(C)(C)O)nc3)c(OCC3CCCO3)cc2s1", "note": "(stereo not shown) [Compound 3, 1-ethyl-3-[5-[2-(1-hydroxy-1-methyl-ethyl)pyrimidin-5-yl]-6-(tetrahydrofuran-2-ylmethoxy)-1,3-benzothiazol-2-yl]urea]", "values": [
      {"measurement": "MIC", "setting": "S. aureus (ATCC 29213)", "value": "≤ 1", "unit": "µg/mL"},
      {"measurement": "MIC", "setting": "S. pyogenes (ATCC 51339)", "value": "≤ 1", "unit": "µg/mL"}
    ]},
    {"molecule": "CCNC(=O)Nc1nc2cc(-c3ccc(C(O)c4cccnc4)nc3)c(F)cc2s1", "note": "(stereo not shown) [Compound 4, 1-ethyl-3-[6-fluoro-5-[6-[hydroxy(3-pyridyl)methyl]-3-pyridyl]-1,3-benzothiazol-2-yl]urea]", "values": [
      {"measurement": "MIC", "setting": "S. aureus (ATCC 29213)", "value": "≤ 1", "unit": "µg/mL"},
      {"measurement": "MIC", "setting": "S. pyogenes (ATCC 51339)", "value": "≤ 1", "unit": "µg/mL"}
    ]},
    {"molecule": "CC(C)(O)c1ncc(-c2cc(-c3ccccn3)c3sc(NC(=O)NCCO)nc3c2)cn1", "note": "[Compound 5, 1-(2-hydroxyethyl)-3-[5-[2-(1-hydroxy-1-methyl-ethyl)pyrimidin-5-yl]-7-(2-pyridyl)-1,3-benzothiazol-2-yl]urea]", "values": [
      {"measurement": "MIC", "setting": "S. aureus (ATCC 29213)", "value": 16, "unit": "µg/mL"},
      {"measurement": "MIC", "setting": "S. pyogenes (ATCC 51339)", "value": "≤ 1", "unit": "µg/mL"}
    ]},
    {"molecule": "CCNC(=O)Nc1nc2cc(-n3cc(C(C)O)nn3)cc(-c3ccccn3)c2s1", "note": "(stereo not shown) [Compound 9, 1-ethyl-3-[5-[4-(1-hydroxyethyl)triazol-1-yl]-7-(2-pyridyl)-1,3-benzothiazol-2-yl]urea]", "values": [
      {"measurement": "MIC", "setting": "S. aureus (ATCC 29213)", "value": 8, "unit": "µg/mL"},
      {"measurement": "MIC", "setting": "S. pyogenes (ATCC 51339)", "value": "≤ 1", "unit": "µg/mL"}
    ]},
    {"molecule": "CCNC(=O)Nc1nc2cc(-n3cnc(C(C)(C)O)c3)cc(-c3ccccn3)c2s1", "note": "[Compound 11, 1-ethyl-3-[5-[4-(1-hydroxy-1-methyl-ethyl)imidazol-1-yl]-7-(2-pyridyl)-1,3-benzothiazol-2-yl]urea]", "values": [
      {"measurement": "MIC", "setting": "S. aureus (ATCC 29213)", "value": 4, "unit": "µg/mL"},
      {"measurement": "MIC", "setting": "S. pyogenes (ATCC 51339)", "value": "≤ 1", "unit": "µg/mL"}
    ]},
    {"molecule": "CCNC(=O)Nc1nc2cc(-c3cnc(C(C)(C)O)nc3)cc(OC)c2s1", "note": "[Compound 12, 1-ethyl-3-[5-[2-(1-hydroxy-1-methyl-ethyl)pyrimidin-5-yl]-7-methoxy-1,3-benzothiazol-2-yl]urea]", "values": [
      {"measurement": "MIC", "setting": "S. aureus (ATCC 29213)", "value": "≤ 1", "unit": "µg/mL"},
      {"measurement": "MIC", "setting": "S. pyogenes (ATCC 51339)", "value": "≤ 1", "unit": "µg/mL"}
    ]},
    {"molecule": "CCNC(=O)Nc1nc2cc(-c3cnc(C(C)(C)O)nc3)cc(COC)c2s1", "note": "[Compound 13, 1-ethyl-3-[5-[2-(1-hydroxy-1-methyl-ethyl)pyrimidin-5-yl]-7-(methoxymethyl)-1,3-benzothiazol-2-yl]urea]", "values": [
      {"measurement": "MIC", "setting": "S. aureus (ATCC 29213)", "value": "≤ 1", "unit": "µg/mL"},
      {"measurement": "MIC", "setting": "S. pyogenes (ATCC 51339)", "value": 2, "unit": "µg/mL"}
    ]},
    {"molecule": "CCNC(=O)Nc1nc2cc(-c3cnc(C(C)O)nc3)cc(OCc3ccc(C)nc3)c2s1", "note": "(stereo not shown) [Compound 14, 1-ethyl-3-[5-[2-(1-hydroxyethyl)pyrimidin-5-yl]-7-[(6-methyl-3-pyridyl)methoxy]-1,3-benzothiazol-2-yl]urea]", "values": [
      {"measurement": "MIC", "setting": "S. aureus (ATCC 29213)", "value": "≤ 1", "unit": "µg/mL"},
      {"measurement": "MIC", "setting": "S. pyogenes (ATCC 51339)", "value": "≤ 1", "unit": "µg/mL"}
    ]},
    {"molecule": "CCNC(=O)Nc1nc2cc(-c3cnc(C(C)O)nc3)cc(-c3cc(C[S+](C)[O-])ccn3)c2s1", "note": "(stereo not shown) [Compound 16, 1-ethyl-3-[5-[2-(1-hydroxyethyl)pyrimidin-5-yl]-7-[4-(methylsulfinylmethyl)-2-pyridyl]-1,3-benzothiazol-2-yl]urea]", "values": [
      {"measurement": "MIC", "setting": "S. aureus (ATCC 29213)", "value": 2, "unit": "µg/mL"},
      {"measurement": "MIC", "setting": "S. pyogenes (ATCC 51339)", "value": "≤ 1", "unit": "µg/mL"}
    ]},
    {"molecule": "CCNC(=O)Nc1nc2cc(-c3cnc(C(C)OC(=O)N4CCN(C)CC4)nc3)cc(-c3ccccn3)c2s1", "note": "(stereo not shown) [Compound 18, 1-[5-[2-(ethylcarbamoylamino)-7-(2-pyridyl)-1,3-benzothiazol-5-yl]pyrimidin-2-yl]ethyl 4-methylpiperazine-1-carboxylate]", "values": [
      {"measurement": "MIC", "setting": "S. aureus (ATCC 29213)", "value": "≤ 1", "unit": "µg/mL"},
      {"measurement": "MIC", "setting": "S. pyogenes (ATCC 51339)", "value": "≤ 1", "unit": "µg/mL"}
    ]},
    {"molecule": "CCNC(=O)Nc1nc2cc(-c3cnc(C(C)(C)OC(=O)CCC(=O)OC)nc3)cc(-c3ccccn3)c2s1", "note": "[Compound 20, O4-[1-[5-[2-(ethylcarbamoylamino)-7-(2-pyridyl)-1,3-benzothiazol-5-yl]pyrimidin-2-yl]-1-methyl-ethyl] O1-methyl butanedioate]", "values": [
      {"measurement": "MIC", "setting": "S. aureus (ATCC 29213)", "value": 2, "unit": "µg/mL"},
      {"measurement": "MIC", "setting": "S. pyogenes (ATCC 51339)", "value": "≤ 1", "unit": "µg/mL"}
    ]},
    {"molecule": "CCNC(=O)Nc1nc2cc(-c3cnc(C(C)(C)OC(=O)CCC(=O)O)nc3)cc(-c3ccccn3)c2s1", "note": "[Compound 21, 4-[1-[5-[2-(ethylcarbamoylamino)-7-(2-pyridyl)-1,3-benzothiazol-5-yl]pyrimidin-2-yl]-1-methyl-ethoxy]-4-oxo-butanoic acid]", "values": [
      {"measurement": "MIC", "setting": "S. aureus (ATCC 29213)", "value": 4, "unit": "µg/mL"},
      {"measurement": "MIC", "setting": "S. pyogenes (ATCC 51339)", "value": "≤ 1", "unit": "µg/mL"}
    ]},
    {"molecule": "CCNC(=O)Nc1nc2cc(-c3ccc(C(O)c4nccn4C)nc3)cc(-c3ccccn3)c2s1", "note": "(stereo not shown) [Compound 24, 1-ethyl-3-[5-[6-[hydroxy-(1-methylimidazol-2-yl)methyl]-3-pyridyl]-7-(2-pyridyl)-1,3-benzothiazol-2-yl]urea]", "values": [
      {"measurement": "MIC", "setting": "S. aureus (ATCC 29213)", "value": "≤ 1", "unit": "µg/mL"},
      {"measurement": "MIC", "setting": "S. pyogenes (ATCC 51339)", "value": "≤ 1", "unit": "µg/mL"}
    ]},
    {"molecule": "CCNC(=O)Nc1nc2cc(-c3cnc(C(C)(C)O)nc3)cc(-c3ccc(CN4CCOCC4)cn3)c2s1", "note": "[Compound 25, 1-ethyl-3-[5-[2-(1-hydroxy-1-methyl-ethyl)pyrimidin-5-yl]-7-[5-(morpholinomethyl)-2-pyridyl]-1,3-benzothiazol-2-yl]urea]", "values": [
      {"measurement": "MIC", "setting": "S. aureus (ATCC 29213)", "value": "≤ 1", "unit": "µg/mL"},
      {"measurement": "MIC", "setting": "S. pyogenes (ATCC 51339)", "value": "≤ 1", "unit": "µg/mL"}
    ]},
    {"molecule": "CCNC(=O)Nc1nc2cc(-c3cnc(C(C)(C)O)nc3)cc(-c3cc(CN4CCCC4)ccn3)c2s1", "note": "[Compound 26, 1-ethyl-3-[5-[2-(1-hydroxy-1-methyl-ethyl)pyrimidin-5-yl]-7-[4-(pyrrolidin-1-ylmethyl)-2-pyridyl]-1,3-benzothiazol-2-yl]urea]", "values": [
      {"measurement": "MIC", "setting": "S. aureus (ATCC 29213)", "value": "≤ 1", "unit": "µg/mL"},
      {"measurement": "MIC", "setting": "S. pyogenes (ATCC 51339)", "value": "≤ 1", "unit": "µg/mL"}
    ]},
    {"molecule": "CCNC(=O)Nc1nc2cc(-c3cnc(C(C)(C)O)nc3)cc(-c3cc(CN4CCC(O)C4)ccn3)c2s1", "note": "(stereo not shown) [Compound 29, 1-ethyl-3-[5-[2-(1-hydroxy-1-methyl-ethyl)pyrimidin-5-yl]-7-[4-[(3-hydroxypyrrolidin-1-yl)methyl]-2-pyridyl]-1,3-benzothiazol-2-yl]urea]", "values": [
      {"measurement": "MIC", "setting": "S. aureus (ATCC 29213)", "value": "≤ 1", "unit": "µg/mL"},
      {"measurement": "MIC", "setting": "S. pyogenes (ATCC 51339)", "value": "≤ 1", "unit": "µg/mL"}
    ]},
    {"molecule": "CCNC(=O)Nc1nc2cc(-c3cnc(N4CCC(C)(C(=O)O)CC4)nc3)cc(-c3ccc(C(C)(C)O)cn3)c2s1", "note": "[Compound 99, 1-[5-[2-(ethylcarbamoylamino)-7-[5-(1-hydroxy-1-methy-ethyl)-2-pyridyl]-1,3-benzothiazol-5-yl]pyrimidin-2-yl]-4-methyl-piperidine-4-carboxylic acid]", "values": [
      {"measurement": "minimal inhibitory concentration (MIC)", "setting": "S. aureus (ATCC 29213)", "value": 2, "unit": "µg/mL"}
    ]},
    {"molecule": "CCNC(=O)Nc1nc2cc(-c3cnc(C4(O)CNC4)nc3)cc(-c3ccccn3)c2s1", "note": "[Compound 163, 1-ethyl-3-[5-[2-(3-hydroxyazetidin-3-yl)pyrimidin-5-yl]-7-(2-pyridyl)-1,3-benzothiazol-2-yl]urea]", "values": [
      {"measurement": "MIC", "setting": "S. pyogenes (ATCC 51339)", "value": 8, "unit": "µg/mL"}
    ]},
    {"molecule": "CCNC(=O)Nc1nc2cc(-c3cnc(C(C)O)nc3)c(N3CCOCC3)cc2s1", "note": "(stereo not shown) [Compound 194, 1-ethyl-3-[5-[2-[1-hydroxyethyl]pyrimidin-5-yl]-6-morpholino-1,3-benzothiazol-2-yl]urea]", "values": [
      {"measurement": "MIC", "setting": "S. aureus (ATCC 29213)", "value": 16, "unit": "µg/mL"}
    ]},
    {"molecule": "CCNC(=O)Nc1nc2cc(-c3cnc(C(C)(C)O)nc3)cc(-c3cc(CNCCO)ccn3)c2s1", "note": "[Compound 196, 1-ethyl-3-[7-[4-[(2-hydroxyethylamino)methyl]-2-pyridyl]-5-[2-(1-hydroxy-1-methyl-ethyl)pyrimidin-5-yl]-1,3-benzothiazol-2-yl]urea]", "values": [
      {"measurement": "MIC", "setting": "S. aureus (ATCC 29213)", "value": 2, "unit": "µg/mL"}
    ]}
  ]
}
